20 compounds from the supplement of paper PMC11424490 can be followed below.

Counter-ions that a name gives are not always drawn.

In test [1] the test system is NCI-H2122. Nature of the test: combination cScore with adagrasib (Bliss gap around IC50) (%PoC); higher = stronger additive effect. Here is the method:
(§1)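 Combination screen of 179 inhibitors with the KRAS G12C inhibitor adagrasib (MRTX849) in dose matrices, CellTiter-Glo readout in NCI-H2122 (72 h), SW837 (144 h) and NCI-H358 cells. The cScore is the mean Bliss-independence gap (expected minus observed viability, in %PoC) over a 3x3 field around the IC50s of both drugs. Positive means additive, and >~10 is stated as clear additive.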

In test [2] the test system is SW837. The description is as above. Here is the method: as §1

As for `C[C@@H]1CCN(C(=O)CC#N)C[C@@H]1N(C)c1ncnc2[nH]ccc12` [Tofacitinib citrate] + C=C(F)C(=O)N1CCN(c2nc(OC[C@@H]3CCCN3C)nc3c2CCN(c2cccc4cccc(Cl)c24)C3)C[C@@H]1CC#N [adagrasib], the “combination cScore with adagrasib” value is -3.58 in test [1] and 5.3 in test [2].

Consider `CCC1=C[C@@H]2CN(C1)Cc1c([nH]c3ccccc13)[C@@](C(=O)OC)(c1cc3c(cc1OC)N(C)[C@H]1[C@@](O)(C(=O)OC)[C@H](OC(C)=O)[C@]4(CC)C=CCN5CC[C@]31[C@@H]54)C2` [Vinorelbine] + C=C(F)C(=O)N1CCN(c2nc(OC[C@@H]3CCCN3C)nc3c2CCN(c2cccc4cccc(Cl)c24)C3)C[C@@H]1CC#N [adagrasib], for which the “combination cScore with adagrasib” value in test [1] is -8.58; in test [2] it was 3.93.

Regarding `COc1cc2cc(c1Cl)N(C)C(=O)C[C@H](OC(=O)C(C)C)[C@]1(C)O[C@@H]1[C@H](C)[C@@H]1C[C@@](O)(NC(=O)O1)[C@H](OC)/C=C/C=C(\C)C2` [Ansamitocin P3] + C=C(F)C(=O)N1CCN(c2nc(OC[C@@H]3CCCN3C)nc3c2CCN(c2cccc4cccc(Cl)c24)C3)C[C@@H]1CC#N [adagrasib], the results for the “combination cScore with adagrasib” value in test [1] and in test [2] were -2.93 and 2.67, respectively.

With `Nc1nc(Cl)nc2c1ncn2[C@@H]1O[C@H](CO)[C@@H](O)[C@@H]1F` [Clofarabine] + C=C(F)C(=O)N1CCN(c2nc(OC[C@@H]3CCCN3C)nc3c2CCN(c2cccc4cccc(Cl)c24)C3)C[C@@H]1CC#N [adagrasib], the “combination cScore with adagrasib” value in test [1] was -3.89; in test [2] it was 1.46.

`Cc1cn(CCN2CCN(c3ccccc3-c3cc(C#N)cc(C(=O)NCCCN4CCCC4)c3)CC2)c2ccccc12` [LLY-507] + C=C(F)C(=O)N1CCN(c2nc(OC[C@@H]3CCCN3C)nc3c2CCN(c2cccc4cccc(Cl)c24)C3)C[C@@H]1CC#N [adagrasib]: the “combination cScore with adagrasib” value in test [1] worked out at 12.6; in test [2] it was 20.3.

`O=C(O)C1(C(=O)O)CCC1.[NH2-].[NH2-].[Pt+2]` [Carboplatin] + C=C(F)C(=O)N1CCN(c2nc(OC[C@@H]3CCCN3C)nc3c2CCN(c2cccc4cccc(Cl)c24)C3)C[C@@H]1CC#N [adagrasib]: the “combination cScore with adagrasib” value is -1.99 in test [1] and -6.32 in test [2].

As to `CN1CCN(c2ccc(-c3cccc(CN4CCOCC4)c3)cc2NC(=O)c2c[nH]c(=O)cc2C(F)(F)F)CC1` [OICR-9429] + C=C(F)C(=O)N1CCN(c2nc(OC[C@@H]3CCCN3C)nc3c2CCN(c2cccc4cccc(Cl)c24)C3)C[C@@H]1CC#N [adagrasib], the “combination cScore with adagrasib” value in test [1] was -2.61; in test [2], 8.92.

Regarding `Cc1ccc(Nc2nccc(N(C)c3ccc4c(C)n(C)nc4c3)n2)cc1S(N)(=O)=O` [Pazopanib] + C=C(F)C(=O)N1CCN(c2nc(OC[C@@H]3CCCN3C)nc3c2CCN(c2cccc4cccc(Cl)c24)C3)C[C@@H]1CC#N [adagrasib], the “combination cScore with adagrasib” value in test [1] was -6.25; in test [2], -7.8.

For `CCc1cnn2c(NCc3ccc[n+]([O-])c3)cc(N3CCCC[C@H]3CCO)nc12` + C=C(F)C(=O)N1CCN(c2nc(OC[C@@H]3CCCN3C)nc3c2CCN(c2cccc4cccc(Cl)c24)C3)C[C@@H]1CC#N [adagrasib], the “combination cScore with adagrasib” value in test [1] was -0.08; in test [2], 0.92.

On to `CCOC(=O)CCNc1cc(N2CCc3ccccc3CC2)nc(-c2ccccn2)n1` [GSK-J4] + C=C(F)C(=O)N1CCN(c2nc(OC[C@@H]3CCCN3C)nc3c2CCN(c2cccc4cccc(Cl)c24)C3)C[C@@H]1CC#N [adagrasib], for which the “combination cScore with adagrasib” value in test [1] stood at 17.9; in test [2] it was 0.593.

For the compound `CC(O)(CS(=O)(=O)c1ccc(F)cc1)C(=O)Nc1ccc(C#N)c(C(F)(F)F)c1` (stereo not given) [Bicalutamide] + C=C(F)C(=O)N1CCN(c2nc(OC[C@@H]3CCCN3C)nc3c2CCN(c2cccc4cccc(Cl)c24)C3)C[C@@H]1CC#N [adagrasib], the “combination cScore with adagrasib” value in test [1] was found to be 4.44; in test [2] it was 2.23.

As to `O=C(O)c1nn(Cc2ccc(Cl)cc2Cl)c2ccccc12` [Lonidamine] + C=C(F)C(=O)N1CCN(c2nc(OC[C@@H]3CCCN3C)nc3c2CCN(c2cccc4cccc(Cl)c24)C3)C[C@@H]1CC#N [adagrasib], the results for the “combination cScore with adagrasib” value in test [1] and in test [2] were -1.92 and -1.95, respectively.

Consider `N[C@H]1CC[C@H](N[C@@H]2C[C@H]2c2ccccc2)CC1` [ORY-1001] + C=C(F)C(=O)N1CCN(c2nc(OC[C@@H]3CCCN3C)nc3c2CCN(c2cccc4cccc(Cl)c24)C3)C[C@@H]1CC#N [adagrasib], for which the “combination cScore with adagrasib” value is -4.53 in test [1] and 2.12 in test [2].

Consider `O=C(/C=C\n1cnc(-c2cc(C(F)(F)F)cc(C(F)(F)F)c2)n1)NNc1cnccn1` [KPT-330] + C=C(F)C(=O)N1CCN(c2nc(OC[C@@H]3CCCN3C)nc3c2CCN(c2cccc4cccc(Cl)c24)C3)C[C@@H]1CC#N [adagrasib], for which the “combination cScore with adagrasib” value in test [1] was found to be 8.01; in test [2], 3.48.

As for `NC(=O)c1ccc(-c2nc(-c3ccccn3)c(-c3ccc4c(c3)OCO4)[nH]2)cc1` + C=C(F)C(=O)N1CCN(c2nc(OC[C@@H]3CCCN3C)nc3c2CCN(c2cccc4cccc(Cl)c24)C3)C[C@@H]1CC#N [adagrasib], the entries for the “combination cScore with adagrasib” value in test [1] and in test [2] were 0.05 and -9.94, respectively.

In the case of `CC(=O)[C@]1(O)Cc2c(O)c3c(c(O)c2[C@@H](O[C@H]2C[C@H](N)[C@H](O)[C@H](C)O2)C1)C(=O)c1ccccc1C3=O` [Idarubicin] + C=C(F)C(=O)N1CCN(c2nc(OC[C@@H]3CCCN3C)nc3c2CCN(c2cccc4cccc(Cl)c24)C3)C[C@@H]1CC#N [adagrasib], the entries for the “combination cScore with adagrasib” value in test [1] and in test [2] were 4.03 and 2.73, respectively.

Take `O=C(Cc1ccccc1)Nc1nnc(CCSCCc2nnc(NC(=O)Cc3ccccc3)s2)s1` [BPTES] + C=C(F)C(=O)N1CCN(c2nc(OC[C@@H]3CCCN3C)nc3c2CCN(c2cccc4cccc(Cl)c24)C3)C[C@@H]1CC#N [adagrasib]: the entries for the “combination cScore with adagrasib” value in test [1] and in test [2] were 8.57 and 7.09, respectively.

Take `CC(C)c1cc(-c2n[nH]c(=O)n2-c2ccc3c(ccn3C)c2)c(O)cc1O` [Ganetespib] + C=C(F)C(=O)N1CCN(c2nc(OC[C@@H]3CCCN3C)nc3c2CCN(c2cccc4cccc(Cl)c24)C3)C[C@@H]1CC#N [adagrasib]: the results for the “combination cScore with adagrasib” value in test [1] and in test [2] were -3.01 and 4.14, respectively.

With `COc1cc(Nc2ncc3c(n2)-c2ccc(Cl)cc2C(c2c(F)cccc2OC)=NC3)ccc1C(=O)O` [MLN8237] + C=C(F)C(=O)N1CCN(c2nc(OC[C@@H]3CCCN3C)nc3c2CCN(c2cccc4cccc(Cl)c24)C3)C[C@@H]1CC#N [adagrasib], the “combination cScore with adagrasib” value in test [1] was -0.97; in test [2], 4.72.

In the case of `COc1cc([C@@H]2c3cc4c(cc3[C@@H](O[C@@H]3O[C@@H]5CO[C@@H](C)O[C@H]5[C@H](O)[C@H]3O)[C@H]3COC(=O)[C@H]23)OCO4)cc(OC)c1O` [Etoposide] + C=C(F)C(=O)N1CCN(c2nc(OC[C@@H]3CCCN3C)nc3c2CCN(c2cccc4cccc(Cl)c24)C3)C[C@@H]1CC#N [adagrasib], the “combination cScore with adagrasib” value in test [1] was 2.33; in test [2], -0.11.
